According to publication PMC2692627 (Molecular microbiology, 2009):

Legend:
[1] = molecular target: recombinant Leishmania DHCH1 (Leishmania major, UniProt Q4Q9F9); experiment: Inhibition of dehydrogenase; assay type: biochemical; conditions: for Inhibition of L. major DHCH1: tested at 50 μM, data not shown
[2] = test system: L. major FV1 promastigotes dhch1^−/pXNG4-DHCH1; experiment: microbe, parasite or virus in culture; assay type: cell-based, Leishmania major; conditions: for Resistance of DHCH1 or FTL overexpressors: DHCH1 or FTL overexpressors vs WT; for EC50: Leishmania major, read-out: EC50 growth
[3] = test system: L. major FV1 promastigotes WT; experiment: Promastigote growth inhibition, WT line; assay type: cell-based; conditions: Leishmania major, read-out: EC50 growth
[4] = test system: L. major FV1 promastigotes dhch1^−/pXNG4-FTL; experiment: Promastigote growth inhibition, dhch1−/pXNG4-FTL line; assay type: cell-based; conditions: Leishmania major, read-out: EC50 growth
[5] = molecular target: T1, recombinant Leishmania major DHCH1 (Leishmania major, UniProt Q4Q9F9); experiment: Kinetic constants of the dehydrogenase reaction of recombinant L. major DHCH1; assay type: biochemical; conditions: limit of detection 0.3 μmol min^−1 mg^−1; also with 5 mM (K+)PO4 and 5 mM MgCl2
T1 sequence (Q4Q9F9 1-298): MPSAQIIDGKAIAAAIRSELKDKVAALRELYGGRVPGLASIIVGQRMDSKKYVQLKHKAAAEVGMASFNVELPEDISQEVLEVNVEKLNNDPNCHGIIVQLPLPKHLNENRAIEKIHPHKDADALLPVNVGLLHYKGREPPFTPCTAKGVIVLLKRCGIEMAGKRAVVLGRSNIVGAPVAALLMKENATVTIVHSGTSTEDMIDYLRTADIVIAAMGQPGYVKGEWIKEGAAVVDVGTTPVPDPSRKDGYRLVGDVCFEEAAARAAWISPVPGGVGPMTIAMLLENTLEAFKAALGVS

Leishmania DHFR-TS = Leishmania DHFR-TS (Leishmania major, UniProt P07382); experiment: DHFR activity of the bifunctional L. major DHFR-TS; assay type: biochemical; conditions: 100 μM; data not shown
[6] = test system: L. major FV1 promastigotes WT/pXNG4-DHCH1; experiment: Promastigote growth inhibition, WT/pXNG4-DHCH1 line; assay type: cell-based; conditions: Leishmania major, read-out: EC50 growth
host cell (macrophages) = experiment: Host cell toxicity in the amastigote/macrophage test; assay type: cell-based; conditions: macrophage host cells; preliminary studies, unpublished data
human DHFR = conditions: read-out: Ki, human DHFR; ref Temple et al., 1982; cited from earlier work
[7] = test system: L. major FV1 promastigotes WT/pXNG4-FTL; experiment: Promastigote growth inhibition, WT/pXNG4-FTL line; assay type: cell-based; conditions: Leishmania major, read-out: EC50 growth
FTL = conditions: 100 μM; ref Vickers et al., 2008; cited from earlier work

Sequence of Leishmania DHFR-TS (P07382 whole entry): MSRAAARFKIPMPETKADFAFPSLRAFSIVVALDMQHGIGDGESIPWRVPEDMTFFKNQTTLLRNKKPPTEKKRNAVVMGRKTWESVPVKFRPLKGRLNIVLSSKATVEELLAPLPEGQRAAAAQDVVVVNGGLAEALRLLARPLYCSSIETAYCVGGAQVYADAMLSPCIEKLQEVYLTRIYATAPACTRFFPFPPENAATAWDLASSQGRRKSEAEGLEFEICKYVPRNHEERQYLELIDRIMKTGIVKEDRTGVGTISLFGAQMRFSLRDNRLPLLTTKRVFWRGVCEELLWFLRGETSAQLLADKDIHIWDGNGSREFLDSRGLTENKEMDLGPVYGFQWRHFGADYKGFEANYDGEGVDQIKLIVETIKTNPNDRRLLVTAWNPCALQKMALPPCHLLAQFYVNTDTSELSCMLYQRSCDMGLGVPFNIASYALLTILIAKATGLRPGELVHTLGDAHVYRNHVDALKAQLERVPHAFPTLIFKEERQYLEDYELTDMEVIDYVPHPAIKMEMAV

Compound	Inhibition of L. major DHCH1 [1]	Resistance of DHCH1 or FTL overexpressors [2]	EC50 [2] [nM]	EC50 [3] [nM]	EC50 [4] [nM]	other results
CC(C)c1nc2nc(N)nc(N)c2nc1C(C)C [Compound 25, 2,4-Diamino-6,7-diisopropylpteridine]	not inhibited					
Nc1nc(N)c2cc(Oc3ccc(Cl)c(Cl)c3)ccc2n1 [Compound 34, 2,4-diamino-6-(3,4-dichlorophenoxy)-quinazoline]	not inhibited	did not show resistance	760 ± 80	680 ± 90	540 ± 60	
CN(Cc1cnc2nc(N)nc(N)c2n1)c1ccc(C(=O)N[C@@H](CCC(=O)O)C(=O)O)cc1 [Methotrexate]	not inhibited	did not show resistance	41 ± 2	36 ± 1	40 ± 2	
NC(=O)c1ccc[n+]([C@@H]2O[C@H](COP(=O)([O-])OP(=O)(O)OC[C@H]3O[C@@H](n4cnc5c(N)ncnc54)[C@H](O)[C@@H]3O)[C@@H](O)[C@H]2O)c1 [NAD^+]						Dehydrogenase activity with the coenzyme [5]: no activity detected
Nc1nc(N)c(CCCc2ccccc2)c(Cc2ccccc2)n1 [Compound 70, 2,4-diamino-6-benzyl-5-(3-phenylpropyl)-pyrimidine]	not inhibited	did not show resistance	400 ± 50	440 ± 50	420 ± 40	
Nc1nc(O)c2c(n1)NC[C@@H]1CN(c3ccc(C(=O)N[C@@H](CCC(=O)O)C(=O)O)cc3)C(=O)N21 [5,10-CO-THF, (2S)-2-[[4-[(6aR)-3-amino-1,9-dioxo-5,6,6a,7-tetrahydro-4H-imidazo[3,4-f]pteridin-8-yl]benzoyl]amino]pentanedioic acid]			4500 ± 500	1100 ± 40	3300 ± 300	Inhibition of the activity of Leishmania DHFR-TS (Leishmania DHFR-TS): did not inhibit; EC50 [6]: 5100 ± 800 nM; Ki [1]: 105 nM; Concentration above which host cell toxicity was seen (host cell (macrophages)): above 10 μM; Ki (human DHFR): > 100000 nM; EC50 [7]: 3700 ± 500 nM; Inhibition of the activity of FTL (FTL): did not inhibit
